Assay results published in patent publication US20090042726A1, “Novel Herbicides” (SYNGENTA LIMITED, priority 2005, published 2009).

Key:
[1] = tested on: Monocotyledonous and dicotyledonous test plants; experiment: Herbicidal action, application pre-emergence (Example B1); format: in vivo; design: key: 10=total damage to plant; 0=no damage to plant; conditions: 1000 g/ha, evaluated after 9 or 13 days; for AGSTE herbicidal action (damage score 0-10): Agrostis-tenius; for AMARE herbicidal action (damage score 0-10): Amaranthus retroflexus; for DIGSA herbicidal action (damage score 0-10): Digitaria sanguinalis; for POATR herbicidal action (damage score 0-10): Poa trivialis; for SETIT herbicidal action (damage score 0-10): Setaria italica
Procedure, shortened: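 Seeds sown in sterilised standard soil were sprayed one day after sowing (pre-emergence) with 1000 mg/l active ingredient in aqueous solution containing 10% DMSO. Plants were kept in a climatic chamber at 24/19° C. day/night after application. Damage was scored 0 (none) to 10 (total) after 9 or 13 days.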

melting point [°C]	Compound	AGSTE herbicidal action (damage score 0-10) [1]	AMARE herbicidal action (damage score 0-10) [1]	DIGSA herbicidal action (damage score 0-10) [1]	POATR herbicidal action (damage score 0-10) [1]	SETIT herbicidal action (damage score 0-10) [1]
140 to 141	Cc1nc(C(Cl)S(=O)(=O)C2=NOC(C)(C)C2F)n(C)n1 (racemic) [8.05, 3-[chloro-(1,3-dimethyl-1H-[1,2,4]triazol-5-yl)-methane-sulfonyl]-4-fluoro-5,5-dimethyl-4,5-dihydro-isoxazole]	10	10	9	8	–
182 to 184	Cc1nc(CS(=O)(=O)C2=NOC(C)(C)C2F)n(C)n1 (stereo not shown) [8.04, 3-[(1,3-dimethyl-1H-[1,2,4]-triazol-5-yl)-methanesulfonyl]-4-fluoro-5,5-dimethyl-4,5-dihydro-isoxazole]	–	–	–	–	–

Second part, the molecule before the results:

Compound	melting point [°C]	AGSTE herbicidal action (damage score 0-10) [1]	AMARE herbicidal action (damage score 0-10) [1]	DIGSA herbicidal action (damage score 0-10) [1]	POATR herbicidal action (damage score 0-10) [1]	SETIT herbicidal action (damage score 0-10) [1]
Cn1nc(C(F)(F)F)c(CS(=O)(=O)C2=NOC(C)(C)C2Cl)c1OCC(F)(F)F (stereo not shown) [Compound No. 2.15, 4-chloro-5,5-dimethyl-3-[1-methyl-5-(2,2,2-trifluoro-ethoxy)-3-trifluoromethyl-1H-pyrazol-4-ylmethylsulfonyl]-4,5-dihydro-isoxazole]	111 to 112	10	8	8	10	6
CC1(C)ON=C(S(=O)(=O)C(F)(F)c2c(F)cccc2F)C1F (stereo not shown) [Compound No. 1.18, 3-[(2,6-difluoro-phenyl)-difluoro-methanesulfonyl]-4-fluoro-5,5-dimethyl-4,5-dihydro-isoxazole]	115 to 116	10	10	10	8	9
Cn1nc(C(F)(F)F)c(CSC2=NOC(C)(C)C2F)c1OCC(F)(F)F (stereo not shown) [Compound No. 2.07, 4-fluoro-5,5-dimethyl-3-[1-methyl-5-(2,2,2-trifluoro-ethoxy)-3-trifluoromethyl-1H-pyrazol-4-ylmethylsulfanyl]-4,5-dihydro-isoxazole]	50 to 51	–	–	–	–	–
Cn1nc(OCC(F)(F)F)c(C[S+]([O-])C2=NOC(C)(C)C2F)c1C(F)(F)F (single isomer, unassigned) [2.43]	–	0	8	9	10	8
Cn1cc(CS(=O)(=O)C2=NOC(C)(C)C2F)c(C(F)(F)F)n1 (stereo not shown) [2.34]	–	10	10	10	10	9
CC(Oc1c(CS(=O)(=O)C2=NOC(C)(C)C2F)c(C(F)(F)F)nn1C)C(F)(F)F (mixture of isomers) [2.37]	–	10	8	9	10	9
Cn1nc(OC(F)F)cc1C[S+]([O-])C1=NOC(C)(C)C1F (mixture of isomers) [6.09]	–	10	10	9	9	–
CC(c1nn(C)cc1C(F)(F)F)S(=O)(=O)C1=NOC(C)(C)C1F (stereo not shown) [4.04, 3-(1-(4-fluoro-5,5-dimethyl-4,5-dihydro-isoxazol-3-ylsulfonyl)-eth-1 yl)-1-methyl-4-trifluoromethyl-1H-pyrazole]	–	10	9	9	8	9
